Measured values: US20260209177A1, “1-DEOXYNOJIRIMYCIN DERIVATIVE AND USE THEREOF” (ZHEJIANG UNIVERSITY, priority 2022, published 2026)

What was measured:
[1] = system: C57BL/6J mice with Ang II-induced myocardial hypertrophy; assay: Heart weight/body weight of Ang II mice; assay type: in vivo, mouse; settings: 10 mg/kg/d intraperitoneal, 4 weeks, FIG. 23
Procedure: (§1) Model construction was performed by adopting C57BL/6J wild-type mice with subcutaneous implantation and perfusion of angiotensin II (AngII)/normal saline (Saline) through an Alzet Osmotic Pump 2004. Relevant statistical results were obtained after continuous feeding, modeling and administration for 4 weeks.
(§2) Administration method: Intraperitoneal injection was adopted at a drug dose of 10 mg/kg/d, drugs were dissolved in a phosphate buffer solution (PBS) and administered twice a day in the morning and the evening, and a placebo group was given a phosphate buffer solution (PBS) of a same volume.
After continuous feeding, modeling and administration for 4 weeks, indicators, such as body weight, of mice were measured before sampling, then the mice were deeply anesthetized with isoflurane, and the mice were sacrificed after completely losing the sense of pain. Hearts were obtained after the mice were sacrificed, and indicators, such as heart weight, were measured.
In histological analysis, the hearts of the mice were collected, cut along maximum cross sections, and fixed with 4% paraformaldehyde. Subsequently, paraffin embedding, sectioning and hematoxylin-eosin (HE) staining of the maximum cross sections were performed. […] The sections were scanned by a scanner (3DHISTECH), and obtained and measured through software slideviewer.

[2] = system: C57BL/6J mice with Ang II-induced myocardial hypertrophy; assay: Transmission electron microscopy of mitochondria in mouse heart tissue; assay type: in vivo; settings: 10 mg/kg/d intraperitoneal, 4 weeks, TEM, FIG. 24
Procedure: as §1, §2
After mice were sacrificed, a small portion of left ventricular tissues were taken, and cardiac muscles were trimmed to achieve cubes with a size of 1 mm^3. According to arrangement directions of mitochondria in the cardiac muscle tissues, tissues were selected respectively along long axes and short axes of hearts, and samples for transmission electron microscopy were prepared subsequently. […]

[3] = system: Con-Cybrids; assay: JC-10 mitochondrial membrane potential in control cybrids; assay type: cell-based, human; settings: 30 μM, 24 hours, FIG. 17B
Description: A method for detecting the mitochondrial membrane potential was the same as that previously described in Example 3. A difference is that 3 HCM-Cybrids cell clones were applied herein for detection to achieve the purpose of making the results more reliable. […] Next, the focus was on DNJ-1 and DNJ-5a to improve the situations of the membrane potential of Cybrids cells in a normal group and the addition of FCCP in different groups, as shown in FIG. 17B.
An operation method in FIG. 17B is as follows. 30 μM DNJ-1 and DNJ-5a drugs were added into Con-Cybrids and HCM-Cybrids cells, and after 24 hours, 50 μL of 10 μM FCCP diluted with a culture medium was added into 3 duplicate wells in each group. The FCCP, as a decoupling agent, was capable of disrupting the formation of mitochondrial membrane potential. 50 μL of a culture medium was added into 3 cloned duplicate wells in each group. The cells were placed in an environment with 5% of CO2 for culture at 37° C. for 30 min. 100×compound A (JC-10) was diluted with compound B (JC-10 Buffer A). A diluted liquid was added into a well plate at 25 μl per well. The cells were placed in an environment with 5% of CO2 for culture at 37° C. for 30 min. Before loading on a machine, JC-10 Buffer B was added into the well plate at 25 μL per well. Fluorescence values corresponding to Ex/Em=490 nm/525 nm and 540 nm/590 nm were detected by a microplate reader. […]

[4] = system: C57BL/6J mice with Ang II-induced myocardial hypertrophy; assay: Cardiac ultrasonography of mice with Ang II-induced myocardial hypertrophy; assay type: in vivo, mouse; settings: 10 mg/kg/d intraperitoneal, 4 weeks, FIG. 22
Procedure: as §1
Model construction: Weighing and anesthetization were performed, and skin preparation and disinfection were performed in surgical areas. A 1 cm incision above a scapula of a front leg was made by using surgical scissors, wherein the incision was perpendicular to a tail part. The skin was cut carefully without damaging underlying tissues, a subcutaneous tunnel was made under the skin by using hemostatic forceps, the pump with a regulator head was completely pushed into a pocket (pointing toward a tail end of each mouse), and the incision was sutured. […]
In the experiment, a Vinno 6LAB high-resolution ultrasonic detector for small animals was used for detection in a two-dimensional (2D) parasternal short-axis M mode. […] Each indicator was detected for 3-6 cardiac cycles, and a mean value of the measured cardiac cycles was calculated.

SMILES	heart weight/body weight [1]	mitochondrial ultrastructure of heart tissue (crista, vacuolation proportion) [2]	impact on the mitochondrial membrane potential of Con-Cybrids [3]	cardiac ultrasonography parameters (EF, FS, LVPWd, LVPWs) [4]
CC(C)(C)C(=O)OC[C@H]1NC[C@H](O)[C@@H](O)[C@@H]1O [DNJ-5a, ((2R,3R,4R,5S)-3,4,5-trihydroxypiperidin-2-yl)methyl pivalate]	better performance	more significantly improve the ultrastructure of the mitochondrial crista and decrease a vacuolation proportion	no impact	better performance
O=C(CCCC[C@@H]1CCSS1)N1C[C@H](O)[C@@H](O)[C@H](O)[C@H]1CO [DNJ-1, 5-((R)-1,2-dithiolan-3-yl)-1-((2R,3R,4R,5S)-3,4,5-trihydroxy-2-(hydroxymethyl)piperidin-1-yl) p entan-1-one]			no impact	
